Assay results published in ChEMBL document CHEMBL1201862, “PubChem BioAssay data set” (2004).
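Cells were grown in 96-well plates and exposed to each compound for 48 hours at five concentrations; endpoints were interpolated linearly between bracketing concentrations, or set to the highest concentration if not reached. GI50: concentration for 50% inhibition of growth.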 Activity calls are given as the source filed them. Rule as the data show it: active = GI50 up to about 1.1 µM and inactive = higher.

Assays:
Assay in all cases: DTP human tumour cell line panel, 48 h
U-251 = tested on: U-251
IGROV-1 = tested on: IGROV-1
SK-MEL-2 = tested on: SK-MEL-2
CCRF-CEM = tested on: CCRF-CEM
CAKI-1 = tested on: CAKI-1
HOP-62 = tested on: HOP-62
HT-29 = tested on: HT-29
SK-MEL-28 = tested on: SK-MEL-28
OVCAR-8 = tested on: OVCAR-8
SN12C = tested on: SN12C
SF-295 = tested on: SF-295
BT-549 = tested on: BT-549
COLO 205 = tested on: COLO 205
HCT-15 = tested on: HCT-15
UO-31 = tested on: UO-31
K562 = tested on: K562
HCT-116 = tested on: HCT-116
NCI-H23 = tested on: NCI-H23
OVCAR-4 = tested on: OVCAR-4
A549 = tested on: A549

Row | SMILES | GI50 (U-251) | GI50 (IGROV-1) | GI50 (SK-MEL-2) | GI50 (CCRF-CEM) | GI50 (CAKI-1) | GI50 (HOP-62) | GI50 (HT-29) | GI50 (SK-MEL-28) | GI50 (OVCAR-8) | GI50 (SN12C) | GI50 (SF-295) | GI50 (BT-549) | GI50 (COLO 205) | GI50 (HCT-15) | GI50 (UO-31) | GI50 (K562) | GI50 (HCT-116) | GI50 (NCI-H23) | GI50 (OVCAR-4) | GI50 (A549)
1 | NNC(=O)CCc1ccc2ccc3ccccc3c2c1 | > 100 µM (inactive) | > 100 µM (inactive) | > 100 µM (inactive) | > 100 µM (inactive) | 54.3 µM (inactive) | > 100 µM (inactive) | > 100 µM (inactive) | > 100 µM (inactive) | > 100 µM (inactive) | 68.1 µM (inactive) | 78.7 µM (inactive) | 55.8 µM (inactive) | > 100 µM (inactive) | 82 µM | 18.8 µM (inactive) | > 100 µM (inactive) | > 100 µM (inactive) | > 100 µM (inactive) | 74.6 µM (inactive) | 
2 | COc1cccc2c1C(=O)c1c(O)c3c(c(O)c1C2=O)C[C@@](O)(C(=O)CO)C[C@@H]3OC1CC(N2CCOCC2)C(O)C(C)O1 (stereo partly specified) | 0.0025 µM (active) | 0.0131 µM (active) | 0.0025 µM (active) | 0.00323 µM (active) | 0.00948 µM (active) | 0.0199 µM (active) | 0.00628 µM (active) | 0.0027 µM (active) | 0.0025 µM (active) | 0.0156 µM (active) | 0.0025 µM (active) | 0.0525 µM (active) | 0.00325 µM (active) | 0.00315 µM | 0.0025 µM (active) | 0.0025 µM (active) | 0.0025 µM (active) | 0.00567 µM (active) | 0.0201 µM (active) | 0.00628 µM (active)
3 | COC(=S)OC1CC(n2cnc3c(N)ncnc32)OC1CO[Si](C)(C)C(C)(C)C (stereo unspecified) | 14.3 µM (inactive) | 17.6 µM (inactive) | 22.6 µM (inactive) | 10.1 µM (inactive) | > 10 µM (inactive) | 16 µM (inactive) | 16.5 µM (inactive) | 28.8 µM (inactive) | 24.3 µM (inactive) | 20.4 µM (inactive) | 17.1 µM (inactive) | 21.9 µM (inactive) | 17.7 µM (inactive) | 16.8 µM | 16.6 µM (inactive) | 2.75 µM (inactive) | 16 µM (inactive) | 14 µM (inactive) | 16.6 µM (inactive) | 
4 | CN1c2ccccc2C(=O)NC12CCN(CCCC(=O)c1ccc(F)cc1)CC2 | > 100 µM (inactive) | > 100 µM (inactive) | > 100 µM (inactive) | 84.7 µM (inactive) | 82.4 µM (inactive) | > 100 µM (inactive) | 23.1 µM (inactive) | 70.1 µM (inactive) | > 100 µM (inactive) | > 100 µM (inactive) | 73.5 µM (inactive) | 58.3 µM (inactive) | 16.3 µM (inactive) | > 100 µM | 80.4 µM (inactive) | 25.9 µM (inactive) | 44.7 µM (inactive) | > 100 µM (inactive) | 87.3 µM (inactive) | > 100 µM (inactive)
5 | O=c1cc(-c2cc(O)c(O)c(-c3c(O)cc4oc(-c5ccc(O)c(O)c5)cc(=O)c4c3O)c2)oc2cc(O)cc(O)c12 | 19.2 µM (inactive) | > 25 µM (inactive) | > 25 µM (inactive) | > 25 µM (inactive) | > 25 µM (inactive) | > 25 µM (inactive) | > 25 µM (inactive) | > 25 µM (inactive) | > 25 µM (inactive) | > 25 µM (inactive) | > 25 µM (inactive) | > 25 µM (inactive) | > 25 µM (inactive) | > 25 µM | > 25 µM (inactive) | > 25 µM (inactive) | 17.5 µM (inactive) | > 25 µM (inactive) | > 25 µM (inactive) | > 25 µM (inactive)
6 | COc1nc2cccc(C(O)c3ccccc3)c2nc1-c1ccccc1 (stereo unspecified) | 4.19 µM (inactive) | 5.09 µM (inactive) | 9.95 µM (inactive) | 3.02 µM (inactive) | 5.05 µM (inactive) | 3.78 µM (inactive) | 5.18 µM (inactive) | 13.4 µM (inactive) | 8.22 µM (inactive) | 10.9 µM (inactive) | 2.08 µM (inactive) | 13.9 µM (inactive) | 4.68 µM (inactive) | 4.43 µM | 8.39 µM (inactive) | 3.81 µM (inactive) | 3.97 µM (inactive) | 3.27 µM (inactive) | 10.1 µM (inactive) | 4.88 µM (inactive)
7 | CC(C)(C)[Si](C)(C)OCC1OC(n2cnc3c(N)ncnc32)CC1OS(C)(=O)=O (stereo unspecified) | > 100 µM (inactive) | > 100 µM (inactive) | > 100 µM (inactive) | > 100 µM (inactive) | > 100 µM (inactive) | 45.8 µM (inactive) | > 100 µM (inactive) | > 100 µM (inactive) | > 100 µM (inactive) | > 100 µM (inactive) | > 100 µM (inactive) | 54 µM (inactive) | > 100 µM (inactive) | > 100 µM | 51.4 µM (inactive) | > 100 µM (inactive) | 72.1 µM (inactive) | 51.1 µM (inactive) | > 100 µM (inactive) | 
8 | COC(=O)[C@@H]1C=C[C@H](NC(C)=O)C1 | > 100 µM (inactive) | > 100 µM (inactive) | > 100 µM (inactive) | > 100 µM (inactive) | > 100 µM (inactive) | > 100 µM (inactive) | > 100 µM (inactive) | > 100 µM (inactive) | > 100 µM (inactive) | > 100 µM (inactive) | > 100 µM (inactive) | > 100 µM (inactive) | > 100 µM (inactive) | > 100 µM | > 100 µM (inactive) | > 100 µM (inactive) | > 100 µM (inactive) | > 100 µM (inactive) | > 100 µM (inactive) | 
9 | Oc1ccc(NCn2c(=S)sc3ccccc32)cc1 | > 100 µM (inactive) | 33.2 µM (inactive) | > 100 µM (inactive) | 32 µM (inactive) | > 100 µM (inactive) | > 100 µM (inactive) | > 100 µM (inactive) | > 100 µM (inactive) | > 100 µM (inactive) | > 100 µM (inactive) | > 100 µM (inactive) | > 100 µM (inactive) | > 100 µM (inactive) | > 100 µM | 89.9 µM (inactive) | 22.3 µM (inactive) | > 100 µM (inactive) | > 100 µM (inactive) | 91 µM (inactive) | > 100 µM (inactive)
